Laboratory results: patent publication US10703746B2, “Mutant IDH1 inhibitors useful for treating cancer” (THE UNITED STATES OF AMERICA, AS REPRESENTED BY THE …, priority 2014, dated 2020)

Legend:
IDH1 R132C = IDH1 R132C (Homo sapiens, UniProt O75874, R132C); test: IDH1 R132C enzymatic assay (NADPH depletion coupled to diaphorase/resazurin); format: biochemical
How it was run: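 NADPH depletion, read via diaphorase/resazurin coupling, after adding substrate at 0.6 mM α-KG and 0.012 mM NADPH. Beforehand, 0.00032 mg/mL enzyme sat with compound 30 min at room temperature in pH 6.5 potassium phosphate buffer with MgCl2, glycerol and BSA.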

IDH1 R132H = IDH1 R132H (Homo sapiens, UniProt O75874, R132H); test: IDH1 R132H enzymatic assay (NADPH depletion coupled to diaphorase/resazurin); format: biochemical
[1] = IDH1 R132C enzymatic inhibition, IC50 class
[2] = IDH1 R132H enzymatic inhibition, IC50 class
[3] = enzymatic inhibition, IDH1 R132C
[4] = enzymatic inhibition, IDH1 R132H

Sequence of IDH1 R132C (O75874 whole entry R132C): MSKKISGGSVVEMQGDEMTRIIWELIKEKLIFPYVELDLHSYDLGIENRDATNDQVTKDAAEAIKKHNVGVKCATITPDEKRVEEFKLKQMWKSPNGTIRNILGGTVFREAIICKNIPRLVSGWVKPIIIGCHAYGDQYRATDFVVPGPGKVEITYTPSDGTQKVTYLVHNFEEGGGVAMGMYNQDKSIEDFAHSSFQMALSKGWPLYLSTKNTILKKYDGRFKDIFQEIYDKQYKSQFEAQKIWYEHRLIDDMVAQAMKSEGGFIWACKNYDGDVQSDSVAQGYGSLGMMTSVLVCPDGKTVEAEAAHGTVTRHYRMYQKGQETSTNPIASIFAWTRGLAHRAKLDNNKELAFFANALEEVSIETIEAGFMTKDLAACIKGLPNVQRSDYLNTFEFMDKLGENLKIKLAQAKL
Sequence of IDH1 R132H (O75874 whole entry R132H): as the sequence (O75874 whole entry R132C) above, with C132H counted along it

Structure (SMILES)	IC50 (IDH1 R132C; [1])	IC50 (IDH1 R132H; [2])	IC50 (IDH1 R132C; [3])	IC50 (IDH1 R132H; [4])
COC(=O)c1ccsc1-n1c2c(cc(-c3nc(-c4ccc(Cl)cc4)cs3)c1=O)C(=O)CC(C)(C)C2 [Compound 652]	300 to 1000 nM	300 to 1000 nM		
CCc1cccc(CC)c1-n1c(C2CCCC2)c(C(=O)N2CCNCC2)cc(-c2nc(-c3ccc(Cl)cc3)cs2)c1=O [Compound 398]	< 300 nM	300 to 1000 nM		
CCc1ccc(Cl)cc1-n1c(C=C(C)C)c(C(=O)N2CCNCC2)cc(-c2nc(-c3ccc(C(F)(F)F)nc3)cs2)c1=O [Compound 491]			< 300 nM	< 300 nM
CCc1cccc(CC)c1-n1c(C(C)C)c(C(=O)O)cc(-c2nc(-c3ccc(Cl)cc3)cs2)c1=O [Compound 98]	5000 to 20000 nM	1000 to 5000 nM		
CCOc1ncc(C)cc1-n1c(C=C(C)C)c(C(=O)N2CCNCC2)cc(-c2nc(-c3ccc(C(F)F)cc3)cs2)c1=O [Compound 562]			< 300 nM	< 300 nM
CCc1cccc(CC)c1-n1c(CC(C)C)c(C(=O)N2CCNCC2)cc(-c2nc(-c3ccc(Cl)nc3)c(C)s2)c1=O [Compound 405]			< 300 nM	< 300 nM
CCc1cccc(CC)c1-n1c(C=C(C)C)c(C(=O)N2CCNCC2)cc(-c2nn(-c3ccc(Cl)cc3)cc2Br)c1=O [Compound 363]	5000 to 20000 nM	1000 to 5000 nM		
CCc1cccc(CC)c1-n1c(CC(C)C)c(C(=O)N2CCNCC2)cc(-c2nc(-c3ccc(C#N)cc3)c(C)s2)c1=O [Compound 235]	< 300 nM	< 300 nM		
CCc1cccc(CC)c1-n1c(CC(C)C)c(C(=O)N2CCNCC2)cc(-c2nc(-c3ccc(C(=O)NC4CCCC4)cc3)c(C)s2)c1=O [Compound 188]	5000 to 20000 nM	5000 to 20000 nM		
CC1(C)CC(=O)c2cc(-c3nc(-c4ccc(Cl)cc4)cs3)c(=O)n(-c3ccccc3N)c2C1 [Compound 301]	1000 to 5000 nM	1000 to 5000 nM		
CCc1cccc(CC)c1-n1c(CC(C)C)c(C(=O)N2CCNCC2)cc(-c2nc(-c3ccc(OC(C)C)cc3)c(C)s2)c1=O [Compound 257]	< 300 nM	300 to 1000 nM		
CCc1cccc(CC)c1-n1c(C(C)C)c(C(=O)N2CCN[C@H](C(=O)O)C2)cc(-c2nc(-c3ccc(Cl)cc3)cs2)c1=O [Compound 264]	< 300 nM	300 to 1000 nM		
CCc1cccc(CC)c1-n1c(C=C(C)C)c(C(=O)N2CCCC(N)C2)cc(-c2nc(-c3ccc(Cl)cc3)cs2)c1=O (stereo not drawn) [Compound 629]	< 300 nM	< 300 nM		
Cc1cc(C#N)c(-n2c3c(cc(-c4nc(-c5ccc(Cl)cc5)cs4)c2=O)C(=O)CC(C)(C)C3)s1 [Compound 346]	300 to 1000 nM	300 to 1000 nM		
CCc1cccc(CC)c1-n1c(C)c(C(=O)NC(C)C)cc(-c2nc(-c3ccc(Cl)cc3)cs2)c1=O [Compound 311]	1000 to 5000 nM	1000 to 5000 nM		
COc1ccc(C(=O)O)cc1-n1c2c(cc(-c3nc(-c4ccc(Cl)cc4)cs3)c1=O)C(=O)CC(C)(C)C2 [Compound 27]	5000 to 20000 nM	5000 to 20000 nM		
CCc1cccc(CC)c1-n1c(CC(C)C)c(C(=O)N2CC(C(=O)OC)NCC2C)cc(-c2nc(-c3ccc(Cl)cc3)cs2)c1=O (stereo not drawn) [Compound 113]	300 to 1000 nM	1000 to 5000 nM		
CCc1cccc(CC)c1-n1c(C=C(C)C)c(C(=O)N2CCNCC2)cc(-c2nc(-c3ccc(Cl)cc3)cs2)c1=O [Compound 408]			< 300 nM	< 300 nM
COc1cccc(OC)c1-n1c2c(cc(-c3nc(-c4ccc(Cl)cc4)cs3)c1=O)C(=O)CCC2 [Compound 414]			1000 to 5000 nM	1000 to 5000 nM
CCOc1ncc(Cl)cc1-n1c(C=C(C)C)c(C(=O)N2CCNCC2)cc(-c2nc(-c3ccc(C(F)F)cn3)cs2)c1=O [Compound 469]			1000 to 5000 nM	300 to 1000 nM
CC(C)Oc1ccccc1-n1c2c(cc(-c3nc(-c4ccc(Cl)cc4)cs3)c1=O)C(=O)CC(C)(C)C2 [Compound 130]	300 to 1000 nM	1000 to 5000 nM		
CCc1cccc(CC)c1-n1c(C2CCC2)c(C(=O)N2CCNCC2)cc(-c2nc(-c3ccc(Cl)cc3)cs2)c1=O [Compound 434]			< 300 nM	300 to 1000 nM
CC(C)=Cc1c(C(=O)N2CCNCC2)cc(-c2nc(-c3ccc(Cl)cc3)cs2)c(=O)n1-c1cc(C)ccc1OC(C)C [Compound 496]			< 300 nM	< 300 nM
CCc1cccc(CC)c1-n1c(C)c(C(=O)N2CCN[C@@H](C(=O)OC)C2)cc(-c2nc(-c3ccc(Cl)cc3)cs2)c1=O [Compound 83]	300 to 1000 nM	1000 to 5000 nM		
CCc1cccc(CC)c1-n1c(CC(C)C)c(C(=O)N2CCNCC2)cc(-n2ccc(-c3ccc(Cl)cc3)n2)c1=O [Compound 452]			< 300 nM	< 300 nM
CCc1cccc(CC)c1-n1c(CC(C)C)c(C(=O)N2CCN[C@@H](C)C2)cc(-c2nc(-c3ccc(Cl)cc3)cs2)c1=O [Compound 141]	< 300 nM	300 to 1000 nM		
CCc1cccc(CC)c1-n1c(CC(C)C)c(C(=O)NCC(O)C(F)(F)F)cc(-c2nc(-c3ccc(Cl)cc3)cs2)c1=O (stereo not drawn) [Compound 127]	< 300 nM	300 to 1000 nM		
